Values quoted from earlier work, collected in paper PMC8065136, “Elevated expression of the adhesion GPCR ADGRL4/ELTD1 promotes endothelial sprouting angiogenesis without activating canonical GPCR signalling” (Scientific Reports, 2021).

Test system: GPR97
Experimental: Another possible explanation for the lack of detectable signalling pathways is that other means of activation need to be employed to activate the receptor. Among them mechanical forces or incubation of the full length receptor with a ligand that has not yet been identified. […] Examples include beclomethasone dipropionate on GPR97[45] or Gedunin- and Khivorin-derivatives on GPR56 and GPR114[46]. It is possible that endogenous small molecules could activate ADGRL4/ELTD1 irrespective of the existence of a functional tethered agoni ...

## CCC(=O)OCC(=O)[C@@]1(OC(=O)CC)[C@@H](C)C[C@H]2[C@@H]3CCC4=CC(=O)C=C[C@]4(C)[C@@]3(Cl)[C@@H](O)C[C@@]21C [beclomethasone dipropionate]
  Activation of aGPCR: activate
